Patent US12600943B2, “Innervated organoid compositions and methods of making same” (priority 2019, dated 2026)

Key:
Assay type in all cases: cell-based, human
[1] = system: ENCC-derived neurons in HCO explants; assay: Ex vivo neuromuscular coupling test of HCO muscle strips (DMPP stimulation)
hPSC-derived NC cells [2] = assay: In vitro neuronal differentiation of FACS-sorted NC cells, immunocytochemistry; conditions: NC^SAG0-10 cells, day 22 of differentiation
Source text: On the other hand, NC^SAG0-10 cells could grow and expand as competently as the control cells. Applicant then examined the differentiation potential of NC^SAG0-10 cells on the basis of their neuronal differentiation capability, as monitored by the expression of pan-neuronal markers (HU, TUJ1 and PGP9.5) and subtype markers, such as tyrosine hydroxylase (TH) for dopaminergic neurons and vasoactive intestinal polypeptide (VIP) for cholinergic neurons, which are the major subtypes of nerve cells found in the ENS.
Around 40 thousand FACS-enriched NC cells were seeded as droplets on poly-ornithine/laminin/fibronectin (PO/LM/FN)-coated 24 well plate in N2 medium containing 10 ng/ml FGF2, 3 μM CHIR99021 and 10 μM Y-27632. […]
For immunocytochemistry, the cells were fixed with 4% paraformaldehyde in PBS at room temperature for 30 min, followed by blocking with 1% bovine serum albumin (BSA) (Thermo Scientific, 23209) with or without 0.1% Triton X-100 (Sigma, T8787) in PBS buffer. […] Quantitative image analysis of differentiated neuronal cultures was performed with ImageJ. A minimum of 4,000 cells were analyzed per sample. Percentages of neuronal cells were measured over the total number of cells (DAPI) and the values reported in bar charts represent the mean±SEM.

HCOs+ENCCs = assay: Innervated HCO model, immunostaining of neurons
HCOs+ENCCs explants = assay: Electrical-field stimulation (EFS) of explanted innervated HCO kidney grafts
[3] = system: hPSCs (hPSC-to-NC transition); assay: hPSC-to-NC differentiation, flow cytometry of HNK-1+ p75NTR+ cells; conditions: for percentage of HNK-1+ p75NTR+ cells (NC yield): flow cytometry at day 10
hPSC-derived NC cells [4] = assay: Single-cell RNA-seq clustering of hPSC-derived NC cells; conditions: SAG treatment groups (day 0-4, day 0-10)
Source text: To understand how HH signaling influences the topology of the neuronal differentiation path of NC, Applicant profiled additional 1,146 single-cell transcriptomes of NC cells with the constant (day 0-10) or early-phase (day 0-4) SAG treatment and NC-derived neurons sampled from day 32 of differentiation as shown in FIG. 4A. Together with 392 control NC cells, a total of 1,538 individual cells were sequenced with 5844 median genes and 1.16 million mean confident mapped reads per cell (FIG. 8). […]
Bulk and single-cell (sc) RNA sequencing were performed at the Centre of Genomic Science, The University of Hong Kong. […] Then, 1 μl of cDNA was checked and quantified on an Agilent Bioanalyzer high-sensitivity DNA chip. […] Libraries were checked and quantified on an Agilent Bioanalyzer high-sensitivity DNA chip (size range 150-2000 bp) and by Qubit dsDNA BR (Molecular Probes). […]
Fastq files with paired-end reads were aligned to the ENSEMBL GRCh38 (release 90, https://www.ensembl.org/) human transcriptome using Bowtie2 v2.3.4.1 (Langmead and Salzberg, 2012) with options ‘—sensitive—mp 1,1—np 1—score-min L,0,-0.1-I 1-X 2000—no-mixed—no-discordant-N 1-L 25-k 200’ which allows one mismatch during sequence alignment. Quality control of the reads of each cell was assessed using FastQC v0.11.6 (FIG. 8). Gene expression level was quantified using TPM values generated by RSEM v1.3.0 (Li and Dewey, 2011). […]

hPSCs = assay: Early-phase lineage immunocytochemistry during NC induction (SOX2+NANOG-, SNAIL+, TUJ1+/TH+)

For `CNC1CCC(N(Cc2cccc(-c3ccncc3)c2)C(=O)c2sc3ccccc3c2Cl)CC1` (stereo not shown) [SAG], the “contractile responses to DMPP compared to HCO+ENCC” value ([1]; HCO+ENCC^SAG0_10) was “stronger contractile responses”, the “numbers of TH+ and VIP+ neurons compared to control” value (hPSC-derived NC cells [2]) was “Significantly greater numbers” and the “mature neurons expressing PGP9.5 and NF vs control” value (HCOs+ENCCs; HCO+ENCCs^SAG0_10 explants) was “more mature neurons”. For the same molecule, the “TUJ1+ and TH+ cells aligned with epithelial cells of HCOs vs control” value (HCOs+ENCCs; HCOs with ENCCs^SAG0_10 in vitro (Day 28)) was “more TUJ1^+ and TH^+ cells”, the “survival and engraftment efficiency of ENCCs to HCOs” value (HCOs+ENCCs; SAG treatment during NC induction) was “greatly improves” and the “EFS-induced wave-like contractions compared to HCO+ENCC group” value (HCOs+ENCCs explants; HCO+ENCC^SAG0_10 explants (ENCCs derived with SAG day 0-10)) was “more profound series of wave-like contractions”. The “percentage of HNK-1+ p75NTR+ cells (NC yield)” value ([3]; SAG 1 μM, days 0-10 (constant), untreated 19.6±0.51%) was 42.5±9.3%, the “percentage of HNK-1+ p75NTR+ cells (NC yield)” value ([3]; SAG added 4 days in early phase (day 0-4)) was “up to 44.6±9.1%” and the “proportion of SAG-specific NC intermediates (Clusters 6 & 7; SOX10-, PHOX2B+, TUBB3high) in total population” value (hPSC-derived NC cells [4]) was “up to 75%”. For the same molecule, the “number of SOX2+NANOG- cells (ectoderm lineage commitment)” value (hPSCs; brief activation in early phase of NC induction, day 4 of differentiation) was “increases the number”, the “formation of NC-like cells (SNAIL+)” value (hPSCs; longer SAG treatment (4 days)) was “emerged as early as day 4” and the NC-to-neuron transition (hPSCs; prolonged (day 0-10) or late-phase (day 4-10) SAG treatment) was “boosted the NC-to-neuron transition”.

With `NC1=N[C@H](O)[C@H]2[C@H]3O[C@]4(O)O[C@@H]([C@@H](O)[C@@]2(N1)[C@@H]4O)[C@]3(O)CO` [TTX, tetrodotoxin] the DMPP-induced muscle contraction [1] was “completely abolished”, the EFS-induced contractions (HCOs+ENCCs explants) was “completely inhibited” and the “contractile activity triggered by low-voltage stimulation” value (HCOs+ENCCs explants) was “completely inhibited”.

`CC1=C2C[C@H]3[C@@H](CC=C4C[C@@H](O)CC[C@@]43C)[C@@H]2CC[C@]12O[C@@H]1C[C@H](C)CN[C@H]1[C@H]2C` [cyclopamine] was tested, and the “hPSC-to-NC transition (percentage of HNK-1+p75NTR+ cells)” value [3] was “dramatically suppressed”.
